Laboratory results as given in PubChem BioAssay AID977612 (Broad Institute, 2014).
Active and inactive are the calls of the source.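 Rule for the calls: active = compounds lowering the signal whose fitted AC50 is at most twice their top tested dose; inconclusive = flat fit with 30 to 70% inhibition, or poor fit; inactive = the rest.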

The compounds below were run against Drosophila melanogaster bursicon receptor (rickets, LGR2) (assay: LGR2 bursicon receptor antagonists, dose response, cell-based, HEK293, CRE-luciferase, luminescence, dry powder (AID 977612)). Conditions: bursicon-stimulated, antagonist luminescence.

| SMILES | AC50 |
| --- | --- |
| C[C@@H]1CN([C@H](C)CO)C(=O)c2cc(NC(=O)C3CCCCC3)ccc2O[C@@H](C)CCCCO[C@@H]1CN(C)C(=O)Nc1cccc2ccccc12 | > 70 µM (inactive) |
| COc1ccc(S(=O)(=O)N(C)C[C@@H]2OCCCC[C@H](C)Oc3ccc(NS(=O)(=O)c4ccc(Cl)cc4)cc3C(=O)N([C@@H](C)CO)C[C@@H]2C)cc1 | 19.1 µM |
| C[C@@H]1CCCCO[C@H](CN(C)C(=O)Nc2cccc3ccccc23)[C@@H](C)CN([C@@H](C)CO)C(=O)c2cc(NC(=O)C3CCCCC3)ccc2O1 | > 70 µM (inactive) |
| C[C@@H]1CN([C@@H](C)CO)C(=O)c2cc(NC(=O)C3CCCCC3)ccc2O[C@@H](C)CCCCO[C@H]1CN(C)C(=O)Nc1cccc2ccccc12 | > 70 µM (inactive) |
| C[C@H](CO)N1C[C@H](C)[C@H](CN(C)C(=O)Nc2cccc3ccccc23)OCCCC[C@H](C)Oc2ccc(NC(=O)c3ccccc3)cc2C1=O | 22.8 µM |
| C[C@H]1CCCCO[C@@H](CN(C)C(=O)Nc2ccc(C(F)(F)F)cc2)[C@@H](C)CN([C@@H](C)CO)C(=O)c2cc(NC(=O)CCC(F)(F)F)ccc2O1 | 31.7 µM |
| C[C@H](CO)N1C[C@H](C)[C@H](CN(C)C(=O)Nc2cccc3ccccc23)OCCCC[C@H](C)Oc2ccc(NC(=O)CCC(F)(F)F)cc2C1=O | 13.1 µM |
| C[C@H](CO)N1C[C@H](C)[C@H](CN(C)C(=O)Nc2ccc(C(F)(F)F)cc2)OCCCC[C@H](C)Oc2ccc(NC(=O)CCC(F)(F)F)cc2C1=O | 15 µM |
| C[C@H](CO)N1C[C@H](C)[C@H](CN(C)C(=O)Nc2ccccc2)OCCCC[C@H](C)Oc2ccc(NC(=O)CCC(F)(F)F)cc2C1=O | 36.3 µM |
| C[C@H](CO)N1C[C@H](C)[C@H](CN(C)C(=O)Nc2ccc3c(c2)OCO3)OCCCC[C@H](C)Oc2ccc(NC(=O)C3CCCCC3)cc2C1=O | 10.5 µM |
| C[C@@H]1CN([C@H](C)CO)C(=O)c2cc(NC(=O)C3CCCCC3)ccc2O[C@@H](C)CCCCO[C@H]1CN(C)C(=O)Nc1cccc2ccccc12 | > 70 µM (inactive) |
| C[C@@H]1CCCCO[C@@H](CN(C)C(=O)Nc2cccc3ccccc23)[C@@H](C)CN([C@@H](C)CO)C(=O)c2cc(NC(=O)C3CCCCC3)ccc2O1 | > 70 µM (inactive) |

Second part, the compound after the results:

| AC50 | SMILES |
| --- | --- |
| 23.2 µM | C[C@H](CO)N1C[C@H](C)[C@H](CN(C)C(=O)Nc2cccc3ccccc23)OCCCC[C@H](C)Oc2ccc(NC(=O)NC3CCCCC3)cc2C1=O |
| 20.9 µM | C[C@H](CO)N1C[C@H](C)[C@H](CN(C)C(=O)Nc2ccccc2)OCCCC[C@H](C)Oc2ccc(NC(=O)NC3CCCCC3)cc2C1=O |
| 30.8 µM | COc1ccc(NC(=O)N(C)C[C@@H]2OCCCC[C@H](C)Oc3ccc(NC(=O)NC4CCCCC4)cc3C(=O)N([C@H](C)CO)C[C@@H]2C)cc1 |
| 10.1 µM | COc1ccc(NC(=O)N(C)C[C@@H]2OCCCC[C@H](C)Oc3ccc(NC(=O)C4CCCCC4)cc3C(=O)N([C@H](C)CO)C[C@@H]2C)cc1 |
| 21.4 µM | C[C@H](CO)N1C[C@H](C)[C@H](CN(C)C(=O)Nc2ccc(F)cc2)OCCCC[C@H](C)Oc2ccc(NC(=O)NC3CCCCC3)cc2C1=O |
| 12.6 µM | C[C@H](CO)N1C[C@H](C)[C@H](CN(C)C(=O)Nc2ccccc2)OCCCC[C@H](C)Oc2ccc(NC(=O)C3CCCCC3)cc2C1=O |
| 31 µM | C[C@H](CO)N1C[C@H](C)[C@H](CN(C)C(=O)Nc2ccc3c(c2)OCO3)OCCCC[C@H](C)Oc2ccc(NC(=O)NC3CCCCC3)cc2C1=O |
| 6.2 µM | C[C@H](CO)N1C[C@H](C)[C@H](CN(C)C(=O)Nc2ccc(F)cc2)OCCCC[C@H](C)Oc2ccc(NC(=O)C3CCCCC3)cc2C1=O |
| 11.4 µM | C[C@H]1CCCCO[C@@H](CN(C)C(=O)Nc2ccc(F)cc2)[C@@H](C)CN([C@@H](C)CO)C(=O)c2cc(NC(=O)C3CCCCC3)ccc2O1 |

Same assay, conditions: bursicon-stimulated, antagonist luminescence, at 35 µM (top of the series)

| SMILES | activity change, negative = inhibition |
| --- | --- |
| C[C@@H]1CCCCO[C@H](CN(C)C(=O)Nc2cccc3ccccc23)[C@H](C)CN([C@@H](C)CO)C(=O)c2cc(NC(=O)C3CCCCC3)ccc2O1 | inactive |
| C[C@@H]1CN([C@@H](C)CO)C(=O)c2cc(NC(=O)C3CCCCC3)ccc2O[C@@H](C)CCCCO[C@@H]1CN(C)C(=O)Nc1cccc2ccccc12 | inactive |
| CC(C)(C)c1ccc(-c2nc(-c3ccncc3)no2)cc1 | inactive |

More lines, now with the values ahead:

| activity change, negative = inhibition | SMILES |
| --- | --- |
| inactive | C[C@@H]1CCCCO[C@@H](CN(C)C(=O)Nc2cccc3ccccc23)[C@H](C)CN([C@@H](C)CO)C(=O)c2cc(NC(=O)C3CCCCC3)ccc2O1 |
| inactive | C[C@@H]1CCCCO[C@@H](CN(C)C(=O)Nc2cccc3ccccc23)[C@H](C)CN([C@H](C)CO)C(=O)c2cc(NC(=O)C3CCCCC3)ccc2O1 |
| inactive | CC(=O)Nc1ccc2c(c1)C(=O)N([C@H](C)CO)C[C@H](C)[C@H](CN(C)C(=O)Nc1ccc(F)cc1)OCCCC[C@H](C)O2 |
| inactive | C[C@H]1CCCCO[C@@H](CN(C)S(=O)(=O)c2ccc(Cl)cc2)[C@@H](C)CN([C@@H](C)CO)C(=O)c2cc(NC(=O)NC3CCCCC3)ccc2O1 |
| inactive | C[C@@H]1CCCCO[C@@H](CN(C)C(=O)Nc2cccc3ccccc23)[C@@H](C)CN([C@H](C)CO)C(=O)c2cc(NC(=O)C3CCCCC3)ccc2O1 |
| inactive | C[C@@H]1CCCCO[C@H](CN(C)C(=O)Nc2cccc3ccccc23)[C@H](C)CN([C@H](C)CO)C(=O)c2cc(NC(=O)C3CCCCC3)ccc2O1 |
| inactive | C[C@H](CO)N1C[C@H](C)[C@H](CN(C)C(=O)Nc2ccc(F)cc2)OCCCC[C@H](C)Oc2ccc(NC(=O)C3CC3)cc2C1=O |
| inactive | C[C@H](CO)N1C[C@H](C)[C@@H](CN(C)C(=O)Nc2cccc3ccccc23)OCCCC[C@H](C)Oc2ccc(NC(=O)C3CCCCC3)cc2C1=O |
| inactive | C[C@H]1CCCCO[C@H](CN(C)C(=O)Nc2cccc3ccccc23)[C@@H](C)CN([C@@H](C)CO)C(=O)c2cc(NC(=O)C3CCCCC3)ccc2O1 |
| inactive | C[C@@H]1CCCCO[C@H](CN(C)C(=O)Nc2cccc3ccccc23)[C@@H](C)CN([C@H](C)CO)C(=O)c2cc(NC(=O)C3CCCCC3)ccc2O1 |
| inactive | C[C@H](CO)N1C[C@H](C)[C@H](CN(C)C(=O)Nc2ccc(F)cc2)OCCCC[C@H](C)Oc2ccc(NC(=O)C3CCOCC3)cc2C1=O |
